In the assay the target is T1, Beta-Amyloid (1-42), human (Homo sapiens, UniProt P05067).
T1 construct: Component B: Beta-Amyloid (1-42), human, 0.25 mg×2, lyophilized;; purchased AnaSpec AS-72214
Briefly: Thioflavin T (ThT) Beta-Amyloid (1-42) Aggregation Assay. It counts as biochemical. The conditions noted are these: 8 μM Beta-Amyloid (1-42), 50 μM ThT dye, 37° C., slope of fluorescence time course; read-out: IC50 for inhibiting amyloids. The method, then:
This assay is used to evaluate the disclosed compounds' activities for inhibiting amyloids.
Thioflavin T (ThT) Beta-Amyloid (1-42) Aggregation Assay Protocol
SensoLyte Thioflavin T Beta-Amyloid (1-42) Aggregation Kit was used (AnaSpec Cat #AS-72214), which includes the following components:
Component A: Assay Buffer (Buffer components are not disclosed);
Component B: Beta-Amyloid (1-42), human, 0.25 mg×2, lyophilized;
Component C: 20 mM ThT solution; and
Component D: 20 mM Phenol Red (Control Inhibitor).
The following buffer was used: 0.005% Tween 20, Assay Buffer from Kit (Component A), and 1% DMSO (final including carryover from compounds).
The final reaction conditions include 8 μM Beta-Amyloid (1-42) and 50 μM ThT dye.
Corning cat #3573, Non-Treated, Black 384-well plate was used as assay plate.
Morin (Sigma Cat #: M4008-2G) was used as control inhibitor.
The reaction procedure is as follows: • 1. Prepare 2×ThT solution in Reaction Buffer; keep in the dark; • 2. Deliver 10 μl/well of 2×ThT solution into the wells; • 3. Prepare 2× Beta-Amyloid solution in Reaction Buffer in polypropylene tube, sonicate for 5 min; keep on ice until use; • 4. Deliver compounds in DMSO into the ThT solution by Acoustic technology (Echo550; nanoliter range), no pre-incubation; • 5. Immediately after compound addition, deliver 10 μL/well of Beta-Amyloid solution into the reaction well, buffer into “No peptide” wells instead; • 6. Immediately start measuring fluorescence intensity in EnVision, set at 37° C., (Ex/Em=450/485 nm) as a time-course measurement every 5 min (30 sec shaking between each read) for 3 hours; • 7. Analyze data by taking slope (signal/time) of linear portion (typically 5 to 45 min) of measurement (therefore time period taken for slope for analysis is different for each target); and • 8. Slope is calculated by using Excel, and curve fits are performed using Prism software.

Structures are written as SMILES. A value given as a limit tells only on which side of the number the result lay.

One may read the IC50 as the midpoint of a concentration-inhibition curve.

T1 sequence (P05067 672-713 limits assumed): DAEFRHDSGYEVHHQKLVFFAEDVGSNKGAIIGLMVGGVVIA

Take `CCn1c(SCc2cn3cc(C)ccc3n2)nc2ccccc21` [Compound 4, 1-ethyl-2-[([6-methylimidazo[1,2-a]pyridin-2-yl]methyl)sulfanyl]-1,3-benzodiazole]: the IC50 was less than 100 µM.

As for `Cc1ccc2nc(CSc3nc4ccc(Cl)cc4[nH]3)cn2c1` [Compound 5], the IC50 is less than 200 µM.

Turning to `Clc1ccc2nc(SCc3cn4cc(Cl)ccc4n3)[nH]c2c1` [Compound 1, 6-chloro-2-[([6-chloroimidazo[1,2-a]pyridin-2-yl]methyl)sulfanyl]-1H-1,3-benzodiazole], the IC50 is less than 100 µM.

With `Cn1c(CSc2nc3ncccn3n2)nc2cc(Cl)ccc21` [Compound 3, 5-chloro-1-methyl-2-([[1,2,4]triazolo[1,5-a]pyrimidin-2-ylsulfanyl]methyl)-1,3-benzodiazole], the IC50 is less than 200 µM.

On to `O=[N+]([O-])c1ccc2nc(SCc3nc4ccc(Cl)cn4c3Br)[nH]c2c1` [Compound 2, 2-[([3-bromo-6-chloroimidazo[1,2-a]pyridin-2-yl]methyl)sulfanyl]-6-nitro-1H-1,3-benzodiazole], for which the IC50 is less than 200 µM.

Source of the values: US20220144840A1, “HETEROCYCLIC COMPOUNDS AND THEIR USE IN THE TREATMENT OF AMYLOID-RELATED DISEASES” (D.E. Shaw Research, LLC, priority 2019, published 2022).
